Experimental data: patent US20130041036A1, “FERULIC ACID AS FEED SUPPLEMENT IN BEEF CATTLE TO PROMOTE ANIMAL GROWTH AND IMPROVE THE MEAT QUALITY OF THE CARCASS AND THE MEAT” (BIOKAB, S.A. DE C.V., priority 2011, published 2013)
Entries after “also recorded” stand apart in the source; their conditions may differ. Marks after values point to notes of the source that are not given here.

Experiments:
[1] = tested on: Longissimus dorsi muscle; assay: Shelf life study of refrigerated meat (colour, TBARS); assay type: in vivo, beef cattle of commercial breeds; conditions: for TBA values (lipid oxidation) during shelf life: FIG. 2
Procedure: In order to estimate the antioxidant effect of ferulic acid, 5 chops of the meat samples were taken (5 experimental units) of the respective treatments, which were packed with traditional packaging (film wrapped) and subjected to a refrigeration process from 4 and 5° C. for 10 days in a room equipped for this purpose. During the shelf life (Day 1, 3, 5, 7 and 9 of storage) the objective color parameters mentioned above, as well as determination of substances reactive to thiobarbituric acid (TBARS) were evaluated according to the methodology described by Pfalzgraf et al. (1995). TBA values were expressed as substances reactive to 2-thiobarbituric acid (TBARS) in mg malonaldehyde/kg sample.
(§1) All data for response variables of the quality of carcass and meat were analyzed under a completely randomized design, with a one-way ANOVA, taking the experimental treatments as a fixed effect. For carcass BFT and REA characteristics the hot carcass weight was used as a covariable. Regarding the sensory attributes, the model also included the effect of panelist as the repeated measure. The variables of the shelf life study were analyzed as a completely randomized design with factorial arrangement, factor A being the treatment with 4 levels, and factor B, the storage time with 5 levels. When there were statistical differences (P<0.05) between treatments, average comparisons were performed by the multiple range test of Tukey. All data was processed in the NCSS statistical package (NCSS, 2001).

[2] = tested on: beef cattle; assay: Feedlot performance and carcass quality of beef cattle; assay type: in vivo, beef cattle of commercial breeds; conditions: for CCW: cold carcass weight: carcass 24 hr at 0° C.; for PH45: pH at 45 min postmortem: Longissimus dorsi
Source text: In this study, all animals received the same prophylactic management, and all were subsequently assigned randomly to one of the following four treatments (25 animals per treatment, divided into pens of 5 experimental units per pen):
Definition of the 4 Treatments
Treatment 1 (Control): control animals (receiving only the basal diet without supplementation of the additive).
Treatment 2 (Ferulic Acid for 30 days=FA30): Animals receiving the basal diet supplemented with 240 ppm of ferulic acid during the last 30 days of the fattening period.
Treatment 3 (Ferulic Acid for 60 days=FA60): Animals receiving the basal diet supplemented with 240 ppm of ferulic acid during the last 60 days of the fattening period.
Treatment 4 (Zilmax commercial Zilpaterp; =ZX): Animals receiving the basal diet and supplemented with 6 ppm hydrochloride zilpaterol during the last 30 days of the fattening period.
During the experimental phase, all animals received a feeding ration consisting of 20% fodder and 80% concentrate. The crop was corn stover, while the concentrate consisted of different proportions of rolled corn grain, soybean meal, canola meal, distillery grains, and molasses. The ration was provided twice a day, and there was free access to the food and drinking water.
Initial and final live weight was recorded in the productive performance trial. The performance test lasted 60 days. Daily feed intake was evaluated, weight was recorded at the beginning and end of experimental period, in order to estimate the average daily gain and feed conversion.
Before concluding the performance test, 2 animals were randomly selected per pen (10 per treatment) for humanitarian slaughter. The animals were sacrificed following the standard procedures of the official Mexican standards in the municipal slaughterhouse of Guadalajara, Jalisco. Animal live weight was recorded before slaughter.
During the slaughter process, the pH of the carcass at 45 min postmortem in the Longissimus dorsi muscle (LD) was measured and the weight of the hot carcass was recorded. The carcasses were refrigerated at 0° C. for 24 hr. After this, the final pH was measured and cold carcass weight recorded, and the classification of carcasses was carried out, recording the Rib eye area (REA) in square inches, back fat thickness (BFT) in mm, and the marbling in the 12th intercostal space of the LD; the skeletal maturity and conformation of the carcass was also evaluated (10 carcasses per treatment). The assessment of quality of the carcass was made following the procedures described by the US Department of Agriculture (USDA, 2000).
as §1

[3] = tested on: Longissimus dorsi muscle; assay: Sensory test of Longissimus dorsi meat by trained panel; assay type: in vivo, beef cattle of commercial breeds; conditions: for Tenderness / Connective tissue perception / Fat perception / Flavor intensity / Juiciness / Odor intensity: cooked meat; for Tenderness: 10 cm scale, zero extremely hard, 10 extremely tender; for Connective tissue perception / Fat perception / Flavor intensity / Juiciness / Odor intensity / Appearance / Overall Color: semi-structured 10 cm scale; for Appearance / Overall Color: raw meat
Procedure: Subsequent to the carcass classification the rib eye cut (LD muscle) was obtained of the left side of each selected carcass. Meat samples were identified, vacuum packed, frozen at -18° C., and then shipped under refrigeration by air courier to the Centro de Investigación en Alimentacion y Desarrollo A.C. (CIAD) facilities at Hermosillo, Sonora, to perform quality analysis of the meat: Chemical analysis (moisture and fat content), physicochemical (objective color parameters L*, which measures the brightness of the meat, a* value, which measures the redness, and b* value which measures the tendency towards yellowness, and hue-angle, Warner-Bratzler shear force, water retention capacity and pH). A sensory test was done by a trained panel consisting of 10 members using a descriptive test with a semi-structured 10 cm scale, where zero indicates a […] of the attribute and a 10 indicates a favorable rating (e.g. tenderness, zero indicates extremely hard and 10 extremely tender). The sensory attributes that were measured: total color and overall appearance of raw meat, flavor, odor, color, tenderness, fat perception, juiciness, and perception of connective tissue in cooked meat. […] To measure cooking loss, the meat sample was weighed before and immediately after reaching the final cooking temperature, which was expressed in percentage. All data for response variables of the quality of carcass and meat were analyzed under a completely randomized design, with a one-way ANOVA, taking the experimental treatments as a fixed effect. For carcass BFT and REA characteristics the hot carcass weight was used as a covariable. Regarding the sensory attributes, the model also included the effect of panelist as the repeated measure. The variables of the shelf life study were analyzed as a completely randomized design with factorial arrangement, factor A being the treatment with 4 levels, and factor B, the storage time with 5 levels. When there were statistical differences (P<0.05) between treatments, average comparisons were performed by the multiple range test of Tukey.

[4] = tested on: pigs; conditions: pigs supplemented with 50 ppm of ferulic acid; cited from earlier work
[5] = 240 ppm ferulic acid (FA30) or 6 ppm zilpaterol hydrochloride (ZX) in diet, last 30 days of fattening
[6] = 240 ppm ferulic acid (FA30) or 6 ppm zilpaterol hydrochloride (ZX), last 30 days of fattening
[7] = 240 ppm ferulic acid in diet, last 60 days of fattening (FA60)
[8] = 240 ppm ferulic acid, last 60 days of fattening (FA60)
[9] = 240 ppm ferulic acid, last 60 days (FA60)
[10] = FA30 240 ppm or ZX 6 ppm, last 30 days of fattening
[11] = FA30 240 ppm or ZX 6 ppm, last 30 days of fattening, listed as FA30

COc1cc(/C=C/C(=O)O)ccc1O [ferulic acid, trans-4-hydroxy-3-methoxy cinnamic acid]
color parameter a* (redness) during shelf life ([1]; film wrapped meat at 4 and 5° C., days 1-9, 240 ppm ferulic acid last 30 days of fattening, FIG. 1, listed as FA30): delayed effect of the deterioration of the red color of the meat; also recorded: maintained the highest values of a* until day 7 of storage
TBA values (lipid oxidation) during shelf life ([1]; film wrapped meat at 4 and 5° C., days 1-9, 240 ppm ferulic acid last 30 days of fattening): lower; also recorded: smaller increases in TBA values
TBA values (lipid oxidation) during shelf life ([1]; film wrapped meat at 4 and 5° C., days 1-9, 240 ppm ferulic acid last 60 days of fattening): faster oxidation
photographic pattern of changes of meat color during shelf life ([1]; refrigerated storage, 240 ppm ferulic acid last 30 days of fattening, FIG. 3): maintain the red meat color with less changes until day 7 of storage
FW: final weight [2, 5]: 553.5 kg
HCW: hot carcass weight [2, 5]: 336.42 kg
CCW: cold carcass weight [2, 5]: 331.13 kg
BFT: back fat thickness [2, 6]: 4.29 mm
PH24: pH at 24 h postmortem [2, 6]: 5.63
REA: rib eye area [2, 6]: 14.54 Inch^2
CY: carcass yield [2, 7]: 59.85^ab %
FW: final weight [2, 7]: 551.9 kg
HCW: hot carcass weight [2, 7]: 330.42 kg
CCW: cold carcass weight [2, 7]: 325.42 kg
BFT: back fat thickness [2, 8]: 4.38 mm
PH24: pH at 24 h postmortem [2, 8]: 5.61
REA: rib eye area [2, 8]: 14.21 Inch^2
PH45: pH at 45 min postmortem [2, 6]: 6.54^b
PH45: pH at 45 min postmortem [2, 8]: 6.33^ab
Tenderness [3, 9]: 7.54^ab
Tenderness [3, 10]: more tender
Tenderness [3, 11]: 7.68^b
Connective tissue perception [3, 9]: 1.50
Fat perception [3, 9]: 3.62
Flavor intensity [3, 9]: 7.32^ab
Juiciness [3, 9]: 6.76^ab
Odor intensity [3, 9]: 7.90
Connective tissue perception [3, 10]: 1.57
Fat perception [3, 10]: 3.22
Flavor intensity [3, 10]: better flavored
Juiciness [3, 10]: juicier
Odor intensity [3, 10]: 8.05
Flavor intensity [3, 11]: 7.73^b
Juiciness [3, 11]: 7.09^b
Appearance [3, 9]: 7.11
Overall Color [3, 9]: 7.65
Appearance [3, 10]: 7.41
Overall Color [3, 10]: 7.51
thickness of the dorsal fat [4]: decrease in the thickness of the dorsal fat
